Test results taken from ChEMBL document CHEMBL1201862, “PubChem BioAssay data set” (2004).
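Each compound was tested at five concentrations against cells in 96-well plates for 48 hours. At the GI50, growth is halved.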 Active and inactive are the calls of the source. Cut-off read from the data, not from the text of the source: active = GI50 up to about 1.1 µM and inactive = higher.

How the values were obtained:
Assay in all cases: NCI anticancer screen, dose series, 48 h
OVCAR-8 = system: OVCAR-8
SK-MEL-2 = system: SK-MEL-2
BT-549 = system: BT-549
HCC 2998 = system: HCC 2998
NCI-H522 = system: NCI-H522
ACHN = system: ACHN
MCF7 = system: MCF7
DU-145 = system: DU-145
U-251 = system: U-251
HCT-116 = system: HCT-116
CCRF-CEM = system: CCRF-CEM
UACC-62 = system: UACC-62
MDA-MB-231 = system: MDA-MB-231
SN12C = system: SN12C
EKVX = system: EKVX
Malme-3M = system: Malme-3M
OVCAR-5 = system: OVCAR-5
MOLT-4 = system: MOLT-4
UO-31 = system: UO-31
NCI-H23 = system: NCI-H23
HCT-15 = system: HCT-15
LOX IMVI = system: LOX IMVI
SF-539 = system: SF-539
SK-MEL-5 = system: SK-MEL-5
TK-10 = system: TK-10
RXF 393 = system: RXF 393
HOP-92 = system: HOP-92
OVCAR-4 = system: OVCAR-4
SNB-19 = system: SNB-19
HL-60 = system: HL-60
SW-620 = system: SW-620
A498 = system: A498
A549 = system: A549
UACC-257 = system: UACC-257
M14 = system: M14
CAKI-1 = system: CAKI-1
MDA-N = system: MDA-N
IGROV-1 = system: IGROV-1
Hs-578T = system: Hs-578T
T47D = system: T47D
OVCAR-3 = system: OVCAR-3
NCI/ADR-RES = system: NCI/ADR-RES
HOP-62 = system: HOP-62
SK-MEL-28 = system: SK-MEL-28
HT-29 = system: HT-29
SF-268 = system: SF-268
PC-3 = system: PC-3
SK-OV-3 = system: SK-OV-3
KM12 = system: KM12
NCI-H460 = system: NCI-H460
SNB-75 = system: SNB-75
K562 = system: K562
SF-295 = system: SF-295
MDA-MB-435 = system: MDA-MB-435
COLO 205 = system: COLO 205
786-0 = system: 786-0
NCI-H226 = system: NCI-H226
RPMI-8226 = system: RPMI-8226
SR = system: SR

O=[N+]([O-])C(Cl)=C/C(=C(\Cl)SCc1ccccc1)[N+](=O)[O-]
GI50 (OVCAR-8): 23.5 µM (inactive)
GI50 (SK-MEL-2): 21.5 µM (inactive)
GI50 (BT-549): 14.7 µM (inactive)
GI50 (HCC 2998): 30.6 µM (inactive)
GI50 (NCI-H522): 20.7 µM (inactive)
GI50 (ACHN): 17 µM (inactive)
GI50 (MCF7): 38.2 µM (inactive)
GI50 (DU-145): 31.4 µM (inactive)
GI50 (U-251): 16.7 µM (inactive)
GI50 (HCT-116): 18.4 µM (inactive)
GI50 (CCRF-CEM): 3.24 µM (inactive)
GI50 (UACC-62): 28.9 µM (inactive)
GI50 (MDA-MB-231): 27.7 µM (inactive)
GI50 (SN12C): 18.2 µM (inactive)
GI50 (EKVX): 17.7 µM (inactive)
GI50 (Malme-3M): 20.2 µM (inactive)
GI50 (OVCAR-5): 23.7 µM (inactive)
GI50 (MOLT-4): 17.7 µM (inactive)
GI50 (UO-31): 20.5 µM (inactive)
GI50 (NCI-H23): 37.5 µM (inactive)
GI50 (HCT-15): 18.2 µM
GI50 (LOX IMVI): 16.5 µM (inactive)
GI50 (SF-539): 21 µM (inactive)
GI50 (SK-MEL-5): 20.8 µM (inactive)
GI50 (TK-10): 23.7 µM (inactive)
GI50 (RXF 393): 10.6 µM (inactive)
GI50 (HOP-92): 15.4 µM (inactive)
GI50 (OVCAR-4): 18.1 µM (inactive)
GI50 (SNB-19): 38.4 µM (inactive)
GI50 (HL-60): 5.62 µM (inactive)
GI50 (SW-620): 21.2 µM (inactive)
GI50 (A498): 27 µM (inactive)
GI50 (A549): 24.8 µM (inactive)
GI50 (UACC-257): 29 µM (inactive)
GI50 (M14): 20 µM (inactive)
GI50 (CAKI-1): 18.1 µM (inactive)
GI50 (MDA-N): 23.4 µM (inactive)
GI50 (IGROV-1): 28.3 µM (inactive)
GI50 (Hs-578T): 53 µM (inactive)
GI50 (T47D): 16.9 µM (inactive)
GI50 (OVCAR-3): 15.5 µM (inactive)
GI50 (NCI/ADR-RES): 36.7 µM (inactive)
GI50 (HOP-62): 18.9 µM (inactive)
GI50 (SK-MEL-28): 26.3 µM (inactive)
GI50 (HT-29): 24.7 µM (inactive)
GI50 (SF-268): 28.6 µM (inactive)
GI50 (PC-3): 22.1 µM (inactive)
GI50 (SK-OV-3): 59.7 µM (inactive)
GI50 (KM12): 29.5 µM (inactive)
GI50 (NCI-H460): 28.2 µM (inactive)
GI50 (SNB-75): 49.5 µM (inactive)
GI50 (K562): 13.3 µM (inactive)
GI50 (SF-295): 28.6 µM (inactive)
GI50 (MDA-MB-435): 18.5 µM (inactive)
GI50 (COLO 205): 17.8 µM (inactive)
GI50 (786-0): 30.5 µM (inactive)
GI50 (NCI-H226): 26.8 µM (inactive)

CC(=O)CCC[C@H](C)[C@@H](O)[C@@H]1O[C@H]([C@@]2(C)CCC(=O)O2)C[C@H]1C(=O)O
GI50 (OVCAR-8): > 100 µM (inactive)
GI50 (SK-MEL-2): > 100 µM (inactive)
GI50 (BT-549): 35.6 µM (inactive)
GI50 (HCC 2998): > 100 µM (inactive)
GI50 (NCI-H522): > 100 µM (inactive)
GI50 (ACHN): > 100 µM (inactive)
GI50 (MCF7): > 100 µM (inactive)
GI50 (DU-145): > 100 µM (inactive)
GI50 (U-251): > 100 µM (inactive)
GI50 (HCT-116): > 100 µM (inactive)
GI50 (CCRF-CEM): > 100 µM (inactive)
GI50 (UACC-62): > 100 µM (inactive)
GI50 (MDA-MB-231): > 100 µM (inactive)
GI50 (SN12C): > 100 µM (inactive)
GI50 (EKVX): > 100 µM (inactive)
GI50 (OVCAR-5): > 100 µM (inactive)
GI50 (MOLT-4): > 100 µM (inactive)
GI50 (UO-31): > 100 µM (inactive)
GI50 (NCI-H23): > 100 µM (inactive)
GI50 (HCT-15): > 100 µM
GI50 (LOX IMVI): > 100 µM (inactive)
GI50 (RPMI-8226): > 100 µM (inactive)
GI50 (SF-539): > 100 µM (inactive)
GI50 (SK-MEL-5): > 100 µM (inactive)
GI50 (TK-10): > 100 µM (inactive)
GI50 (RXF 393): > 100 µM (inactive)
GI50 (OVCAR-4): > 100 µM (inactive)
GI50 (SNB-19): > 100 µM (inactive)
GI50 (SW-620): > 100 µM (inactive)
GI50 (A549): > 100 µM (inactive)
GI50 (UACC-257): > 100 µM (inactive)
GI50 (CAKI-1): > 100 µM (inactive)
GI50 (MDA-N): > 100 µM (inactive)
GI50 (IGROV-1): > 100 µM (inactive)
GI50 (Hs-578T): > 100 µM (inactive)
GI50 (T47D): > 100 µM (inactive)
GI50 (OVCAR-3): > 100 µM (inactive)
GI50 (NCI/ADR-RES): > 100 µM (inactive)
GI50 (HOP-62): > 100 µM (inactive)
GI50 (SK-MEL-28): > 100 µM (inactive)
GI50 (HT-29): > 100 µM (inactive)
GI50 (SF-268): > 100 µM (inactive)
GI50 (PC-3): > 100 µM (inactive)
GI50 (SK-OV-3): > 100 µM (inactive)
GI50 (KM12): > 100 µM (inactive)
GI50 (NCI-H460): > 100 µM (inactive)
GI50 (SNB-75): > 100 µM (inactive)
GI50 (K562): > 100 µM (inactive)
GI50 (SF-295): > 100 µM (inactive)
GI50 (MDA-MB-435): > 100 µM (inactive)
GI50 (COLO 205): > 100 µM (inactive)
GI50 (SR): 37.2 µM (inactive)
GI50 (786-0): > 100 µM (inactive)
GI50 (NCI-H226): > 100 µM (inactive)

O=c1cc(N2CCCC2)[nH]c(=O)n1-c1cccc(Cl)c1
GI50 (OVCAR-8): > 100 µM (inactive)
GI50 (SK-MEL-2): > 100 µM (inactive)
GI50 (BT-549): > 100 µM (inactive)
GI50 (HCC 2998): > 100 µM (inactive)
GI50 (NCI-H522): > 100 µM (inactive)
GI50 (ACHN): > 100 µM (inactive)
GI50 (MCF7): > 100 µM (inactive)
GI50 (DU-145): > 100 µM (inactive)
GI50 (U-251): > 100 µM (inactive)
GI50 (HCT-116): > 100 µM (inactive)
GI50 (CCRF-CEM): > 100 µM (inactive)
GI50 (UACC-62): > 100 µM (inactive)
GI50 (MDA-MB-231): > 100 µM (inactive)
GI50 (SN12C): > 100 µM (inactive)
GI50 (EKVX): > 100 µM (inactive)
GI50 (Malme-3M): > 100 µM (inactive)
GI50 (OVCAR-5): > 100 µM (inactive)
GI50 (MOLT-4): > 100 µM (inactive)
GI50 (NCI-H23): > 100 µM (inactive)
GI50 (HCT-15): > 100 µM
GI50 (LOX IMVI): > 100 µM (inactive)
GI50 (RPMI-8226): > 100 µM (inactive)
GI50 (SF-539): > 100 µM (inactive)
GI50 (TK-10): > 100 µM (inactive)
GI50 (RXF 393): > 100 µM (inactive)
GI50 (HOP-92): > 100 µM (inactive)
GI50 (OVCAR-4): > 100 µM (inactive)
GI50 (SNB-19): > 100 µM (inactive)
GI50 (HL-60): > 100 µM (inactive)
GI50 (SW-620): > 100 µM (inactive)
GI50 (A498): > 100 µM (inactive)
GI50 (UACC-257): > 100 µM (inactive)
GI50 (M14): > 100 µM (inactive)
GI50 (CAKI-1): > 100 µM (inactive)
GI50 (MDA-N): > 100 µM (inactive)
GI50 (IGROV-1): > 100 µM (inactive)
GI50 (Hs-578T): > 100 µM (inactive)
GI50 (T47D): > 100 µM (inactive)
GI50 (OVCAR-3): > 100 µM (inactive)
GI50 (NCI/ADR-RES): > 100 µM (inactive)
GI50 (HOP-62): > 100 µM (inactive)
GI50 (HT-29): > 100 µM (inactive)
GI50 (SF-268): > 100 µM (inactive)
GI50 (PC-3): > 100 µM (inactive)
GI50 (SK-OV-3): > 100 µM (inactive)
GI50 (KM12): > 100 µM (inactive)
GI50 (NCI-H460): > 100 µM (inactive)
GI50 (SNB-75): > 100 µM (inactive)
GI50 (K562): > 100 µM (inactive)
GI50 (SF-295): > 100 µM (inactive)
GI50 (MDA-MB-435): > 100 µM (inactive)
GI50 (COLO 205): > 100 µM (inactive)
GI50 (786-0): > 100 µM (inactive)
GI50 (NCI-H226): > 100 µM (inactive)
